Reference: PMC12040169 (PLOS Biology, 2025)

assay: in vitro; conditions: human, hela cells, % viability

First: Cc1ccc(-n2c3nc(=O)[nH]c(=O)c-3cc3c(Cl)cccc32)c(C)c1 [CBK287965]
Second: Cc1ccc(C2CC(=O)Nc3nc(-c4ccccc4)[nH]c(=O)c32)c(C)c1 (centres unmarked) [CBK287998]
The viability at 28.5 h, 10 µM of the first is lower: 83.3% for the first, 108% for the second.

Going from `COc1ccc(C2=CC(c3ccc(Cl)cc3)N3N=CNC3=N2)cc1OC` (centres unmarked) [CBK287966] to `COc1ccc(C(C)NC(=O)c2cn[nH]c2-c2ccc(Cl)cc2)cc1` (centres unmarked) [CBK288065], the viability at 28.5 h, 10 µM rises from 84.3% to 102%.

Going from `O=C(c1ccccc1)c1cn[nH]c1-c1ccccc1O` [CBK287970] to `O=C(NCCc1ccccc1)c1cc(-c2ccccc2Cl)[nH]n1` [CBK288113], the viability at 28.5 h, 10 µM rises from 77.8% to 105%.

Going from `O=C(Nc1ccncc1)C1(c2ccccc2)CCCC1` [CBK287972] to `COc1ccc(C2(C(=O)NCc3ccncc3)CCOCC2)cc1` [CBK287991], the viability at 28.5 h, 10 µM falls from 111% to 103%.

Going from `c1cncc(-c2noc(-c3cc(C4CC4)[nH]n3)n2)c1` [CBK287973] to `Cc1ccc(C)c(-c2nc(-c3cccnc3)no2)c1` [CBK288018], the viability at 28.5 h, 10 µM rises from 94.7% to 102%.

Compared with `CC(=O)Nc1ccc(-c2nc3cnccc3o2)cc1` [CBK287975], `O=C(Nc1ccncc1)c1c(O)c2ccccc2[nH]c1=O` [CBK288017] is higher in viability at 28.5 h, 10 µM: 85.9% for the first, 112% for the second.

First: c1csc(-c2ccn3c(n2)nc2ccccc23)c1 [CBK287976]
Second: CN(C(=O)c1cc(-c2cccs2)[nH]n1)c1ccccc1 [CBK288115]
The viability at 28.5 h, 10 µM of the first is lower: 83.9% for the first, 86.1% for the second.

First: Cc1nc(-c2ccccc2F)sc1C(=O)Nc1ccccn1 [CBK287979]
Second: O=C(Nc1ccccn1)c1cc(O)c(OCc2ccccc2)cn1 [CBK287989]
The viability at 28.5 h, 10 µM of the first is higher: 98.8% for the first, 89.5% for the second.

Going from `C=C(C)Cn1c(=O)nc(N)c2c3c(sc21)CCC3` [CBK287986] to `COc1ccc(-c2cnn3c(N)c4c(nc23)CCC4)cc1` [CBK287987], the viability at 28.5 h, 10 µM rises from 88.2% to 97.4%.

Going from `O=C(CCc1nc2ccccc2s1)Nc1nc2ccccc2[nH]1` [CBK287988] to `COc1cccc(CNC(=O)CCc2nc3ccccc3[nH]2)c1` [CBK288003], the viability at 28.5 h, 10 µM rises from 114% to 115%.

Going from `O=C(NC1CCCC1)c1ccc2c(=O)[nH]cnc2c1` [CBK287990] to `O=c1[nH]cnc2c1cnn2Cc1ccccc1Cl` [CBK287999], the viability at 28.5 h, 10 µM rises from 90.1% to 97.1%.

Going from `COc1cnc(C(=O)NCc2ccccc2Cl)cc1O` [CBK287993] to `COc1ccccc1CNc1ncnc2[nH]ncc12` [CBK288100], the viability at 28.5 h, 10 µM rises from 84.6% to 99.5%.

Compared with `O=C(Nc1ccccc1-n1cnnn1)c1ccccc1Cl` [CBK287994], `COc1ccccc1NC(=O)c1cn(Cc2ccc(N)cc2)cn1` [CBK288045] is higher in viability at 28.5 h, 10 µM: 95% for the first, 99.5% for the second.

Compared with `COc1ccccc1CCC(=O)Nc1cnn(C)c1` [CBK287995], `O=C(CC1C(=O)Nc2ncnn21)Nc1ccccc1` (centres unmarked) [CBK288071] is lower in viability at 28.5 h, 10 µM: 117% for the first, 90.7% for the second.

Compared with `O=C1CC(c2cc(F)ccc2F)c2c(-c3ccc(Cl)cc3)n[nH]c2N1` (centres unmarked) [CBK288000], `Cc1ccc(-c2cc(C(=O)NCc3ccc(F)cc3Cl)n[nH]2)cc1` [CBK288102] is lower in viability at 28.5 h, 10 µM: 110% for the first, 85.6% for the second.

Going from `Nc1cc(=O)[nH]c(=O)n1Cc1ccc(Cl)cc1` [CBK288002] to `COc1ccc(Cn2cnc3[nH]ncc3c2=O)cc1` [CBK288049], the viability at 28.5 h, 10 µM falls from 112% to 91.7%.

Compared with `Cc1ccc(OCC(=O)Nc2ccc3c(c2)nc2n3CCOC2)cc1` [CBK288005], `COc1ccc(NC2=NN(c3ccccc3)C(=O)C2)cc1` [CBK288085] is higher in viability at 28.5 h, 10 µM: 102% for the first, 104% for the second.

Going from `CCCCc1ccc(Nc2ncnc3nc[nH]c23)cc1` [CBK288006] to `CCOc1ccc(Nc2cc(Cl)nc(N)n2)cc1` [CBK288069], the viability at 28.5 h, 10 µM rises from 96.3% to 98.7%.

First: O=c1[nH]c2ccccc2n1CCOc1ccccc1 [CBK288008]
Second: O=c1c2[nH]cc(-c3ccccc3)c2ncn1CCc1ccccc1 [CBK288025]
The viability at 28.5 h, 10 µM of the first is higher: 98.5% for the first, 76.9% for the second.

Going from `Cc1c(-c2cc(-c3cnn(C)c3C)[nH]n2)cnn1C` [CBK288013] to `Cc1c(C2CC(C(F)(F)F)n3nccc3N2)cnn1C` (centres unmarked) [CBK288015], the viability at 28.5 h, 10 µM rises from 76% to 93.9%.

First: CCNc1nnc(-c2c(Cl)c(C)nn2C)s1 [CBK288014]
Second: CCCCNc1nnc(-c2cc(C)nn2C)s1 [CBK288019]
The viability at 28.5 h, 10 µM of the first is higher: 92.5% for the first, 91.5% for the second.

Going from `Cc1cc(F)ccc1NC(=O)c1n[nH]cc1Cl` [CBK288020] to `COc1ccc(CNc2nc(C)n[nH]2)cc1Cl` [CBK288036], the viability at 28.5 h, 10 µM rises from 92.4% to 98.9%.

Compared with `CCCCNc1nnc(-c2nn(C)cc2Cl)s1` [CBK288021], `CCCCn1nnnc1NCc1cccc(OC)c1OC` [CBK288091] is higher in viability at 28.5 h, 10 µM: 79.4% for the first, 104% for the second.

Compared with `O=C(O)c1cc(-c2ccc(OC(F)F)cc2)[nH]n1` [CBK288022], `O=C(c1cc(-c2cccs2)[nH]n1)N1CCCCCC1` [CBK288108] is higher in viability at 28.5 h, 10 µM: 87.1% for the first, 92.1% for the second.

Going from `O=C(Nc1ccn(C23CC4CC(CC(C4)C2)C3)n1)c1ccco1` [CBK288023] to `O=C(c1n[nH]c2c1CCCC2)N1CC(=O)N(CCc2ccccc2)C(=O)C1` [CBK288110], the viability at 28.5 h, 10 µM falls from 106% to 98.3%.

Compared with `O=c1[nH]nc2c3c(nc(-c4ccncc4)n12)CCCC3` [CBK288029], `Cc1ccc(Sc2nccn3c(=O)[nH]nc23)c(C)c1` [CBK288055] is lower in viability at 28.5 h, 10 µM: 109% for the first, 101% for the second.

Going from `O=C(NCc1ccccn1)c1nn[nH]c1Nc1cccc(Cl)c1` [CBK288030] to `O=C(NCc1nnc2ccccn12)c1ccccc1` [CBK288064], the viability at 28.5 h, 10 µM rises from 79.4% to 110%.

Compared with `O=C(O)Cc1cnnn1-c1ccc(Cl)cc1Cl` [CBK288035], `Cc1n[nH]c(NCc2cccc(Cl)c2Cl)n1` [CBK288037] is higher in viability at 28.5 h, 10 µM: 86% for the first, 107% for the second.

Going from `O=C(O)c1nnn(-c2ccccc2)c1-c1ccncc1` [CBK288041] to `O=C1CC(c2noc(-c3ccncc3)n2)CN1c1ccccc1` (centres unmarked) [CBK288043], the viability at 28.5 h, 10 µM falls from 95.1% to 85.4%.

First: CN(C(=O)CSc1ncccc1C#N)c1ccccc1 [CBK288044]
Second: O=c1c2nnc3ncnn3c2ccn1-c1ccccc1 [CBK288075]
The viability at 28.5 h, 10 µM of the first is lower: 98.3% for the first, 99.5% for the second.

Compared with `O=c1[nH]c2n[nH]c(=O)n2c2c(-c3ccccc3)c[nH]c12` [CBK288054], `Cc1nc2c3c(sc2c(=O)[nH]1)NC(=O)CC3c1ccccc1` (centres unmarked) [CBK288094] is higher in viability at 28.5 h, 10 µM: 84.2% for the first, 93.1% for the second.

Going from `Cc1noc(C2=CC=CN3C2=NNC32CCNCC2)n1` [CBK288058] to `CCN1CCN(c2ncnc3sc(C)c(C)c23)CC1` [CBK288101], the viability at 28.5 h, 10 µM rises from 91% to 98.6%.

Compared with `COc1cccc(C2C=C(c3cccnc3)Nc3ncnn32)c1OC` (centres unmarked) [CBK288062], `COc1cc(-c2nc(N)n[nH]2)cc(OC)c1OC` [CBK288077] is higher in viability at 28.5 h, 10 µM: 95.1% for the first, 103% for the second.

Compared with `Fc1ccc(C2=Nn3cnnc3SC2)c(F)c1` [CBK288078], `CCOc1cc(CNc2nc[nH]n2)cc(Cl)c1OCc1ccccc1F` [CBK288088] is higher in viability at 28.5 h, 10 µM: 97% for the first, 103% for the second.

Going from `Cc1nn(-c2ccccc2)c(Cl)c1C1NC(=O)c2c(sc(C)c2C)N1` (centres unmarked) [CBK288086] to `CCCNc1cc(C)c(C#N)c2nc3ccccc3n12` [CBK288097], the viability at 28.5 h, 10 µM falls from 96% to 94%.

For `COCCNc1nc2c([nH]1)c(=O)n(C)c(=O)n2C` [CBK288104], the viability at 28.5 h, 10 µM was 90.3%.
